In publication PMC6323793 (BMC Cancer, 2019):
Read-outs that look alike come from different tables or passages of the source.

How the values were obtained:
[1] = target: T1, recombinant human Cdc25B (Homo sapiens, UniProt P30305); test: Cdc25B fluorometric phosphatase assay (OMFP substrate); format: biochemical
T1 construct: purchased CycLex CY-1353
T1 sequence (P30305 1-580): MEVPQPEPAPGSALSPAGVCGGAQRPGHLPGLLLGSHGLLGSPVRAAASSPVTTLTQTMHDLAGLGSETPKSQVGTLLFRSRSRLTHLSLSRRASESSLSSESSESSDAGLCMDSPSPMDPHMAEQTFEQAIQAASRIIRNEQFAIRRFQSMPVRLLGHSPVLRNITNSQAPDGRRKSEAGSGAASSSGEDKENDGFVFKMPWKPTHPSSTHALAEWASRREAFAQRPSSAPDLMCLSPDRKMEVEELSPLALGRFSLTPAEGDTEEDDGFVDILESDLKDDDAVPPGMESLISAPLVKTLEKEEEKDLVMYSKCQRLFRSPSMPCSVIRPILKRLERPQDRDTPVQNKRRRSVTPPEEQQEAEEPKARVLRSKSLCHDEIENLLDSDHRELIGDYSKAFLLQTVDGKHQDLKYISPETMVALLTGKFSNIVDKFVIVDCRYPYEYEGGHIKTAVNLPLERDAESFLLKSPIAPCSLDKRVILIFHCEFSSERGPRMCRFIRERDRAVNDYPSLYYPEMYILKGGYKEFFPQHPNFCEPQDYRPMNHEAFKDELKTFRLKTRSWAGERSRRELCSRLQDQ
Experimental: Then, 25 μL of stop solution was added. Fluorescence was measured at an excitation wavelength of 485 nm and an emission wavelength of 530 nm using a fluorescence microplate reader (BioTek Instruments, Inc., Winooski, VT, USA). Menadione is a quinone-type inhibitor of Cdc25s that was used as a positive control here.

[2] = target: T2, recombinant human Cdc25A (Homo sapiens, UniProt P30304); test: Cdc25A fluorometric phosphatase assay (OMFP substrate); format: biochemical
T2 construct: purchased CycLex CY-1352
T2 sequence (P30304 1-524): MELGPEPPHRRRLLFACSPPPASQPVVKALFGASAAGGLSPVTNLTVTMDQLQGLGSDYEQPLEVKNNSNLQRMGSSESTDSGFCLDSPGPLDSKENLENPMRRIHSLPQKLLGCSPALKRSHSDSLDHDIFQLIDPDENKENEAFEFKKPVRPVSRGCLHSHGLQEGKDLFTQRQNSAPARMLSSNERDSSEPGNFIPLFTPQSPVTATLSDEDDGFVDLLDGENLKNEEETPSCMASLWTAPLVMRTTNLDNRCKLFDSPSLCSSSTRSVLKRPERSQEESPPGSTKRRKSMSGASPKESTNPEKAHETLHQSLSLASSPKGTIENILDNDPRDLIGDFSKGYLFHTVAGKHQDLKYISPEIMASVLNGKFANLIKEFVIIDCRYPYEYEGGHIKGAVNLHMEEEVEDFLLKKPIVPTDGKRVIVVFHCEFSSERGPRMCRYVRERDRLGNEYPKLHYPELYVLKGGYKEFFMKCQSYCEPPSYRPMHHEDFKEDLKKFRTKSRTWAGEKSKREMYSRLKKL
Experimental: (§1) In summary, dual-specificity phosphatase activity was measured in a 96-well microtiter plate using O-methylfluorescein phosphate (OMFP) as a substrate. 5 μL (0.1 μg/μL) of purified recombinant Cdc25s (Cdc25A, -B and -C) was mixed with 40 μL of assay mixture and incubated with 5 μL of the test compound at various concentrations in a well. Then, 25 μL of stop solution was added. […] Menadione is a quinone-type inhibitor of Cdc25s that was used as a positive control here.

[3] = target: T3, recombinant human Cdc25C (Homo sapiens, UniProt P30307); test: Cdc25C fluorometric phosphatase assay (OMFP substrate); format: biochemical
T3 construct: purchased CycLex CY-1354
T3 sequence (P30307 1-473): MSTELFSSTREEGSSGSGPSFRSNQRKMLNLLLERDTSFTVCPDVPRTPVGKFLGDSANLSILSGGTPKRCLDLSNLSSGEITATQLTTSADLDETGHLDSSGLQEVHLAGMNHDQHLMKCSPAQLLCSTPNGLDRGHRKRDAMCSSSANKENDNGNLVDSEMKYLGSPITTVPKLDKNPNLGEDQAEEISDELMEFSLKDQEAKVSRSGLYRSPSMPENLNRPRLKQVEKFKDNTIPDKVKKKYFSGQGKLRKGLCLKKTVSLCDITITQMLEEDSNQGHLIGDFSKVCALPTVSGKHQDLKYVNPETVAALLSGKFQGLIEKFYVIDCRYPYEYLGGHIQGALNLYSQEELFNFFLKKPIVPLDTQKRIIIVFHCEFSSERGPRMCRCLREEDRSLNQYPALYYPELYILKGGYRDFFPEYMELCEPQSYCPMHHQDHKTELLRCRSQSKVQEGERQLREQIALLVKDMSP
Experimental: as §1

[4] = tested on: HeLa cells; test: MTT anti-proliferation assay, HeLa; details: Homo sapiens, 48 h, read-out: IC50 HeLa
[5] = tested on: tsFT210 cells; test: MTT anti-proliferation assay, tsFT210; details: Mus musculus, tsFT210, 48 h, read-out: IC50 tsFT210
[6] = tested on: MCF-7 cells; test: MTT anti-proliferation assay, MCF-7; details: Homo sapiens, MCF7, 48 h, read-out: IC50 MCF-7
[7] = tested on: tsFT210 cells; test: Cell cycle analysis by flow cytometry; format: cell-based, mouse; details: synchronized tsFT210 cells released at 32 °C, treated for 6 h
Experimental: Cell cycle analysis was performed as described previously. […]. The harvested cells were stained with staining buffer (50 μg/ml propidium iodide, 0.1% sodium citrate and 0.2% NP-40) and analysed by Flow Cytometry (BD Biosciences). A final concentration of 0.5% DMSO was used for all compounds and as a negative control. Nocodazole, a potent mitotic blocker that arrests cells at the G2/M phase, was used as a positive control at a concentration of 100 nM.

[8] = tested on: K562 xenograft tumour; test: K562 xenograph tumour model in mice; format: in vivo, mouse
Experimental: (§2) The mouse model was constructed according to our previous work. Balb/c mice (female, 5 weeks old), purchased from Shanghai SLAC Laboratory Animal Co., LTD (Shanghai, China), were subcutaneously injected into a 100 μL K562 cell suspension (5 × 10^6/mL, PBS) in the right flank of mice. […] The long and short dimensions of tumour size were measured by a digital calliper at days 1, 4, 8, 11, 16, 21, and 24 after treatment. The volume was calculated with the formula (long dimension) × (short dimension)^2/2. The mice were euthanized 2 days after the last treatment by the method of cervical dislocation.

[9] = tested on: CDK1 (tyrosine 15 phosphorylation) in tsFT210 cells; test: Western blot of CDK1 phosphorylation status in cells; format: cell-based, mouse; details: cells in G2/M phase, 1 μM, 5 μM and 25 μM, 4 h
Experimental: (§3) The phosphorylation status of CDK1 was analysed by Western blotting as described in our previous work. […] The protein concentration in cell lysates was confirmed by the Bradford method. Fifty micrograms of protein per lane was resolved on 10% SDS polyacrylamide gels, and the bands were transferred to PVDF membranes (Millipore). Nonspecific reactivity was blocked by 5% non-fat milk prepared in TBST (10 mM Tris, 150 mM NaCl, 0.05% Tween-20, pH 7.5) at room temperature for 1 h. The protein signals were captured with primary antibodies and the secondary antibodies according to the manufacturers’ instructions. In this process, the protein β-actin was used to normalize target protein. All antibodies used in this paper were purchased from Cell Signaling Technology (Inc, China).

[10] = tested on: tsFT210 cells; test: Intracellular ROS assay (DCFH-DA) in tsFT210 cells; format: cell-based, mouse; details: tsFT210 cells synchronized at G2 phase, 5 μM and 25 μM, 4 h, compared with control cells
Experimental: (§4) Reactive oxygen species (ROS) were detected with the fluorescent probe 2′,7′-dichlorofluorescin diacetate (DCFH-DA) as described by others. Briefly, MCF-7 cells or tsFT210 (synchronized at G2 phase) cells were plated in 96-well plates and loaded with 20 μM DCFH-DA for 30 min at 37 °C in culture medium. […] Untreated cells were used as control. Fluorescence was measured using a fluorescence microplate reader (BioTek Instruments, excitation wavelength: 485 nm, emission wavelength: 528 nm). The ROS levels were expressed as RFU (relative fluorescence unit).

[11] = tested on: phosphorylated CDK1 in primary tumour tissues; test: Phosphorylated CDK1 in tumour tissue of K562-bearing mice; format: in vivo, mouse; details: especially the 5 and 10 mg/kg groups, vs control group
Experimental: as §3, §2

[12] = tested on: K562 cells; test: MTT anti-proliferation assay, K562; details: Homo sapiens, K562, 48 h, read-out: IC50 K562
[13] = tested on: MCF-7 cells; test: Intracellular ROS assay (DCFH-DA) in MCF-7 cells; format: cell-based; details: 5 μM and 25 μM, 4 h, compared with control cells
Experimental: as §4

[14] = recombinant human phosphatase, OMFP substrate, mean ± S.E.M., read-out: IC50 Cdc25A
[15] = recombinant human phosphatase, OMFP substrate, mean ± S.E.M., read-out: IC50 Cdc25C
[16] = recombinant human phosphatase, OMFP substrate, mean ± S.E.M., read-out: IC50 Cdc25B

CC(=O)O[C@H](CC=C(C)C)C1=CC(=O)c2c(O)ccc(O)c2C1=O [Acetylshikonin]
IC50 [1]: 3.87 ± 0.68 µM | IC50 [2]: 3.92 ± 0.66 µM | IC50 [3]: 4.67 ± 0.34 µM

CC(C)=CCCC1=CC(=O)c2c(O)ccc(O)c2C1=O [Deoxyshikonin]
IC50 [1]: 7.32 ± 0.45 µM | IC50 [2]: 3.22 ± 0.76 µM | IC50 [3]: 6.33 ± 0.65 µM

COc1cccc2c1C(=O)c1c(O)c3c(c(O)c1C2=O)C[C@@](O)(C(=O)CO)C[C@@H]3O[C@H]1C[C@H](N)[C@H](O)[C@H](C)O1 [Doxorubicin, reference compound]
IC50 [4]: 0.43 ± 0.06 µM | IC50 [5]: 0.56 ± 0.14 µM | IC50 [6]: 0.28 ± 0.03 µM

CC(C)=CC[C@@H](OC(=O)C(C)C)C1=CC(=O)c2c(O)ccc(O)c2C1=O [Isobutylshikonin]
IC50 [2, 14]: 6.79 ± 1.02 µM | IC50 [3, 15]: 5.89 ± 0.43 µM

CC(C)=CCC(OC(=O)CC(C)C)C1=CC(=O)c2c(O)ccc(O)c2C1=O (centres unmarked) [Isovalerylshikonin]
IC50 [2, 14]: 9.53 ± 0.78 µM | IC50 [3, 15]: 11 ± 0.97 µM

COC(=O)Nc1nc2ccc(C(=O)c3cccs3)cc2[nH]1 [Nocodazole, reference compound]
Effect on cell cycle progression [7]: arrested the cells at the G2/M phase

CC(C)=CC[C@@H](O)C1=CC(=O)c2c(O)ccc(O)c2C1=O [Shikonin]
IC50 [4]: 9.56 ± 1.03 µM | Effect on cell cycle progression [7]: blocked at the G2/M phase in a concentration-dependent manner | IC50 [2]: 2.14 ± 0.21 µM | Tumour growth ([8]; K562-bearing mice, 1, 5, or 10 mg/kg every other day, 21 days, vs vehicle): concentration-dependently inhibited tumour growth | Survival (Kaplan-Meier) ([8]; K562-bearing mice, 1, 5, or 10 mg/kg, vs control group): prolonged | IC50 [3]: 4.78 ± 0.18 µM | Phosphorylation status of CDK1 (Western blot) [9]: induced an accumulation of the tyrosine 15-phosphorylated form of CDK1 | IC50 [5]: 8.97 ± 0.87 µM | Intracellular ROS [10]: increased significantly | IC50 [6]: 6.82 ± 0.76 µM | Protein levels of phosphorylated CDK1 in primary tumour tissues [11]: significantly increased | IC50 [12]: 6.15 ± 0.46 µM | Intracellular ROS [13]: increased significantly

CC1=CC(=O)c2ccccc2C1=O [menadione, reference compound]
IC50 [1]: 5.37 ± 0.45 µM | IC50 [2]: 4.12 ± 0.87 µM | IC50 [3]: 5.13 ± 0.24 µM

CCC(C)C(=O)O[C@H](CC=C(C)C)C1=CC(=O)c2c(O)ccc(O)c2C1=O (stereo partly drawn) [α-Methyl-η-butylshikonin]
IC50 [1, 16]: 14.3 ± 1.27 µM | IC50 [2, 14]: 11.2 ± 1.45 µM | IC50 [3, 15]: 13.5 ± 1.45 µM

CC(C)=CCC(OC(=O)C=C(C)C)C1=CC(=O)c2c(O)ccc(O)c2C1=O (stereo not drawn) [β,β-Dimethylacrylshikonin]
IC50 [1, 16]: 8.56 ± 0.67 µM | IC50 [2, 14]: 4.67 ± 0.85 µM
